Reference: PubChem BioAssay (NCI)
Where “and” joins values, the source holds several entries; their conditions need not be identical. Equal entries are not always repeated.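 Five compound concentrations were applied to cells in 96-well plates for 48 hours; endpoints were derived by simple linear interpolation of the resulting dose-response curve. GI50 marks 50% less growth. TGI: concentration producing complete growth inhibition.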

Tested on: MCF7 breast
Experiment: growth of human tumour cells (NCI), 48 h

SMILES | GI50 | TGI
OC[C@H]1C[C@](O)(c2ccc(Cl)cc2)[C@@H](c2ccc(Cl)cc2)O1 | 30 µM | 72.8 µM
C=CCCCCC/C=C\[C@H](O)C#CC#C/C=C/CO | 38.5 µM | > 100 µM
O/N=C/C1C(OCc2ccccc2)C(OCc2ccccc2)C(OCc2ccccc2)CN1Cc1ccccc1 (stereo not drawn) | 9.88 µM and 2.9 µM | 40.8 µM and 15.7 µM
Cn1cc(CO)c2c1C(=O)C=C(N1CC1)C2=O | < 0.01 µM | –
C=C1C(=O)O[C@@H]2C[C@@H]1CC/C(C)=C/CC/C(C)=C/CC[C@@]2(C)O | 11.9 µM | 36.2 µM
COc1ccc(C(C)=O)cc1N1C(=O)C2C(C1=O)C1(c3ccccc3)C(=O)C2(c2ccccc2)C(c2ccc(C)cc2)=C1c1ccc(C)cc1 (stereo not drawn) | > 100 µM | > 100 µM
NC(=Nc1c([N+](=O)[O-])cnc2ccccc12)N1CCOCC1 | – | > 100 µM
CCN(CC)c1ccc2c(c1)OC(N)=C(C#N)C2c1cc(OC)c2c(c1)OCO2 (stereo not drawn) | 0.0294 µM | 11.5 µM
CC(C)CCN1c2nc(Nc3cc(F)c(O)c(F)c3)ncc2N(C)C(=O)C1C (stereo not drawn) | 2.85 µM | 18.1 µM
Cc1nc2c(-c3cnc(N)nc3)nc(N3CCOCC3)nc2n1C(C)C | 0.0876 µM and 0.0298 µM | > 100 µM
COc1ccc(/C=C(/C(=O)N2CCN(c3ccccc3)CC2)c2cc(OC)c(OC)c(OC)c2)cc1O | 0.307 µM | > 100 µM
N#Cc1c(NN)n(C2OC(CO)C(O)C2O)c2ncnc(N)c12 (stereo not drawn) | 0.0315 µM | 2.87 µM
CN1CCN(CCOc2ccc(-c3cnc4c(-c5ccccc5F)cnn4c3)cc2)CC1 | 1.32 µM | 2.97 µM

Tested on: M14 melanoma
Experiment: growth of human tumour cells (NCI), 48 h

SMILES | TGI | GI50
CC(C)N(C(=O)C12C3C4C5(C#N)C3C1(C#N)C5C42I)C(C)C (stereo not drawn) | > 100 µM | –
COc1ccc2c3c([nH]c2c1[N+](=O)[O-])C(C)=NCC3 | > 100 µM | –
CC(C)(C)CC(C)(C)c1cc2c(O)c(c1)Cc1cc(C(C)(C)CC(C)(C)C)cc(c1O)Cc1cc(C(C)(C)CC(C)(C)C)cc(c1O)Cc1cc(C(C)(C)CC(C)(C)C)cc(c1O)C2 | > 100 µM | –
C=CCCCCC/C=C\[C@H](O)C#CC#C/C=C/CO | > 100 µM | 86.2 µM
Cc1cc([N+](=O)[O-])ccc1Nc1cccc(Cl)c1C | 29.1 µM | –
O/N=C/C1C(OCc2ccccc2)C(OCc2ccccc2)C(OCc2ccccc2)CN1Cc1ccccc1 (stereo not drawn) | 40.3 µM and > 100 µM | 11.7 µM and 5.68 µM
Cn1cc(CO)c2c1C(=O)C=C(N1CC1)C2=O | < 0.01 µM | < 0.01 µM
CC1=C(C(=O)Nc2ccccc2)C(c2ccccc2)C(C(=O)Nc2ccccc2)=C(C)N1 | > 100 µM | –
Cc1nn(-c2ccccc2)c2nc(N3CCOCC3)nnc12 | > 100 µM | –
[Cl][Hg][c]1cc(Br)cc(Br)c1 | 6.32 µM | 2.12 µM
CC(C)c1ccc2c(c1)CC[C@@H]1[C@@](C)(C(=O)O)CCC[C@]21C | 22.1 µM | 10.4 µM
C=C1C(=O)O[C@@H]2C[C@@H]1CC/C(C)=C/CC/C(C)=C/CC[C@@]2(C)O | 8.37 µM | 2.04 µM
CCOc1ccccc1C=C1c2ccccc2C(=O)c2ccccc21 | 64.5 µM | –
O=C(CCn1[nH]c(=O)c(Cl)c(Cl)c1=O)NO | > 100 µM | –
[N-]=[N+]=NC12CC3C4CC5CC3C(C1)C(C5)C4C2 | > 100 µM | –
CN(C)c1nc2ccccc2[nH]1 | > 100 µM | –
NNC(=S)N/N=C(\CC1OC(=O)c2ccccc21)c1ccccc1O (stereo not drawn) | > 100 µM | –
COC(=O)C1=C(O)c2cc(OC)c(OC)cc2C(c2ccc(OC)c(OC)c2)C1 (stereo not drawn) | > 100 µM | –
COC1(OC)CC2C(=O)N(Cc3ccccc3)C1C(S(=O)(=O)c1ccccc1)C2S(=O)(=O)c1ccccc1 (stereo not drawn) | 28.5 µM | –

SMILES | TGI | GI50
NC(=Nc1c([N+](=O)[O-])cnc2ccccc12)N1CCOCC1 | > 100 µM | –
CCN(CC)c1ccc2c(c1)OC(N)=C(C#N)C2c1cc(OC)c2c(c1)OCO2 (stereo not drawn) | 0.0459 µM | 0.0138 µM
Cc1cc(CC(O)c2ccc(Cl)c(Cl)c2)nc(=O)[nH]1 (stereo not drawn) | > 100 µM | –
COC(=O)C(=Cc1cc(OC)ccc1OC)C(=O)OC | 36.6 µM | –
CC1=NNC(=O)C2CCC(=O)N12 (stereo not drawn) | > 100 µM | –
CC(C)c1ccccc1NC(=O)CCc1n[nH]c(=S)o1 | > 100 µM | –
CCCCC(C(=O)C(=O)NC1C2CC3CC(C2)CC1C3)C(=O)C(C)C (stereo not drawn) | > 100 µM | –
COC(=O)c1cc2c(s1)C(=O)c1ccccc1-2 | > 100 µM | –
CC(C)CCN1c2nc(Nc3cc(F)c(O)c(F)c3)ncc2N(C)C(=O)C1C (stereo not drawn) | 26.1 µM | 4.59 µM
Cn1c2c(c3ccccc31)C1CCCCCCC1C1C(=O)OC(=O)C21 (stereo not drawn) | > 100 µM | –
Cc1ccc(S(=O)(=O)N(CC(=O)O)c2ccccc2)cc1 | > 100 µM | –
COc1ccc(C(=O)C(c2ccc(OC)cc2)C2(O)C(=O)Nc3ccc([N+](=O)[O-])cc32)cc1 (stereo not drawn) | > 100 µM | –
Cc1nc2c(-c3cnc(N)nc3)nc(N3CCOCC3)nc2n1C(C)C | 2.12 µM and 5.91 µM | –
COc1ccc(/C=C(/C(=O)N2CCN(c3ccccc3)CC2)c2cc(OC)c(OC)c(OC)c2)cc1O | 24 µM | 0.315 µM
N#Cc1c(NN)n(C2OC(CO)C(O)C2O)c2ncnc(N)c12 (stereo not drawn) | 0.303 µM | 0.0532 µM
N#CC(N)(C(=O)CCC(=O)Nc1cccc(Cl)c1)c1ccc(Cl)cc1 (stereo not drawn) | > 100 µM | –
S=C(Nc1ccccc1)N(/N=C/C=C/c1ccccc1)c1nnc(-c2ccccc2)c(-c2ccccc2)n1 | > 100 µM | –
CN1CCN(CCOc2ccc(-c3cnc4c(-c5ccccc5F)cnn4c3)cc2)CC1 | 3.52 µM | 1.82 µM

Tested on: CCRF-CEM leukemia
Experiment: growth of human tumour cells (NCI), 48 h

SMILES | TGI | GI50 [µM]
CC(C)N(C(=O)C12C3C4C5(C#N)C3C1(C#N)C5C42I)C(C)C (stereo not drawn) | > 59.7 µM | –
COc1ccc2c3c([nH]c2c1[N+](=O)[O-])C(C)=NCC3 | > 100 µM | –
CC(C)(C)CC(C)(C)c1cc2c(O)c(c1)Cc1cc(C(C)(C)CC(C)(C)C)cc(c1O)Cc1cc(C(C)(C)CC(C)(C)C)cc(c1O)Cc1cc(C(C)(C)CC(C)(C)C)cc(c1O)C2 | > 100 µM | –
Cc1cc([N+](=O)[O-])ccc1Nc1cccc(Cl)c1C | 47.2 µM | –
O/N=C/C1C(OCc2ccccc2)C(OCc2ccccc2)C(OCc2ccccc2)CN1Cc1ccccc1 (stereo not drawn) | 71.2 µM and > 100 µM | –
Cn1cc(CO)c2c1C(=O)C=C(N1CC1)C2=O | 11.2 µM | 0.26
Cc1nn(-c2ccccc2)c2nc(N3CCOCC3)nnc12 | > 100 µM | –
[Cl][Hg][c]1cc(Br)cc(Br)c1 | 4.22 µM | 1.32
CCOc1ccccc1C=C1c2ccccc2C(=O)c2ccccc21 | 35.5 µM | –
O=C(CCn1[nH]c(=O)c(Cl)c(Cl)c1=O)NO | > 100 µM | –
COc1ccc(C(C)=O)cc1N1C(=O)C2C(C1=O)C1(c3ccccc3)C(=O)C2(c2ccccc2)C(c2ccc(C)cc2)=C1c1ccc(C)cc1 (stereo not drawn) | > 100 µM | > 100
[N-]=[N+]=NC12CC3C4CC5CC3C(C1)C(C5)C4C2 | > 100 µM | –
CN(C)c1nc2ccccc2[nH]1 | > 100 µM | –
NNC(=S)N/N=C(\CC1OC(=O)c2ccccc21)c1ccccc1O (stereo not drawn) | > 100 µM | –
COC(=O)C1=C(O)c2cc(OC)c(OC)cc2C(c2ccc(OC)c(OC)c2)C1 (stereo not drawn) | > 100 µM | –
COC1(OC)CC2C(=O)N(Cc3ccccc3)C1C(S(=O)(=O)c1ccccc1)C2S(=O)(=O)c1ccccc1 (stereo not drawn) | 13.7 µM | –
NC(=Nc1c([N+](=O)[O-])cnc2ccccc12)N1CCOCC1 | > 100 µM | –
CCN(CC)c1ccc2c(c1)OC(N)=C(C#N)C2c1cc(OC)c2c(c1)OCO2 (stereo not drawn) | 1.71 µM | 0.0308
Cc1cc(CC(O)c2ccc(Cl)c(Cl)c2)nc(=O)[nH]1 (stereo not drawn) | > 100 µM | –
COC(=O)C(=Cc1cc(OC)ccc1OC)C(=O)OC | 61.8 µM | –
CC1=NNC(=O)C2CCC(=O)N12 (stereo not drawn) | > 100 µM | –
CC(C)c1ccccc1NC(=O)CCc1n[nH]c(=S)o1 | > 100 µM | –
CCCCC(C(=O)C(=O)NC1C2CC3CC(C2)CC1C3)C(=O)C(C)C (stereo not drawn) | > 100 µM | –
COC(=O)c1cc2c(s1)C(=O)c1ccccc1-2 | > 100 µM | –
CC(C)CCN1c2nc(Nc3cc(F)c(O)c(F)c3)ncc2N(C)C(=O)C1C (stereo not drawn) | 23.6 µM | 1.52
Cn1c2c(c3ccccc31)C1CCCCCCC1C1C(=O)OC(=O)C21 (stereo not drawn) | 59 µM | –
Cc1ccc(S(=O)(=O)N(CC(=O)O)c2ccccc2)cc1 | > 100 µM | –
COc1ccc(C(=O)C(c2ccc(OC)cc2)C2(O)C(=O)Nc3ccc([N+](=O)[O-])cc32)cc1 (stereo not drawn) | > 100 µM | –
O=C(/C=C/c1ccccc1O)c1ccccc1O | > 100 µM | –
COc1ccc(/C=C(/C(=O)N2CCN(c3ccccc3)CC2)c2cc(OC)c(OC)c(OC)c2)cc1O | > 100 µM | 0.355
